The nature of data set [1]: Partition coefficient (LogP) value was evaluated. The class given is physicochemical. The following applies: octanol/water.
Data set [2] is described as follows: Tested for aqueous solubility of the compound. The format is physicochemical. Conditions: read-out: S.
Data set [3] concerns the target T1, Renin (Rattus norvegicus) (UniProt P08424).
T1 sequence (whole entry): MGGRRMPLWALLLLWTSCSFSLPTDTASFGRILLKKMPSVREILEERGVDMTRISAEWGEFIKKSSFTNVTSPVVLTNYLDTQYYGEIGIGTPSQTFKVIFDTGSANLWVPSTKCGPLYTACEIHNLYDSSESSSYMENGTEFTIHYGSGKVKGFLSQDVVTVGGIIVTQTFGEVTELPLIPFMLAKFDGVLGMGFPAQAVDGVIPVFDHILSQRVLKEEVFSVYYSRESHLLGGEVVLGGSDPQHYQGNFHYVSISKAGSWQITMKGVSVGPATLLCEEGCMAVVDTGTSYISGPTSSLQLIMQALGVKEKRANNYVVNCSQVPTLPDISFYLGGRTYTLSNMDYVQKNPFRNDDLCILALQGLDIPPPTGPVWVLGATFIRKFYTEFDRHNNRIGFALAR
The experiment in a line: Tested for % inhibition against renin at 10E-6 M concentration. The class given is functional.

A short description of data set [4]: Tested for pKa value of the compound. The format is physicochemical.
Data set [5] concerns the target T1, Renin (Rattus norvegicus). The experiment in a line: Tested for percent inhibition against renin at 10 e-6 M concentration in rat. The format is functional.

Converted amounts (≈) assume the structure as drawn.

`CC(C)C[C@H](O)[C@H](O)[C@@H](N)CC1CCCCC1` gave a logP in data set [1] of 2. In addition, the solubility in data set [2] came to 5870 µg/mL (≈ 24100 µM). For the same compound, in data set [3], the inhibition was determined as 0%. This compound returned a pKa in data set [4] of 9.3.

`CC(C)C[C@H](O)[C@H](O)[C@H](CC1CCCCC1)NC(=O)[C@H](Cc1csc(N)n1)NC(=O)[C@H](Cc1ccccc1)NS(=O)(=O)N1CCOCC1` gave a logP in data set [1] of 3.1. The solubility in data set [2] was 10 µg/mL (≈ 14.1 µM). This compound also returned a pKa in data set [4] of 6.3.

Consider `CC(C)C[C@H](O)[C@H](O)[C@H](CC1CCCCC1)NC(=O)OC(C)(C)C`, for which the lipophilicity (logP) in data set [1] is 4. This compound also displayed an inhibition in data set [5] of 0%. Moreover, the solubility in data set [2] was less than 20 µg/mL.

These data come from ChEMBL document CHEMBL1127223, “Evaluation of the intestinal permeability and hepatic handling of peptidomimetic analogs” (Bioorg Med Chem Lett, 1993).
